Measurements as given in US6352982B1, “4,1-benzoxazepines, their analogues, and their use as somatostatin agonists” (Takeda Chemical Industries, Ltd., priority 1997, dated 2002).
Where a name gives a salt, the structure may show the parent alone.

Experiments:
Assay in all cases: Binding inhibition of 125I-somatostatin, CHO cell membrane fraction
[1] = target: T1, human somatostatin receptor SSTR5 (Homo sapiens, UniProt P35346); details: 125I-somatostatin binding, 25° C. for 60 minutes, read-out: Activities for human somatostatin receptor (IC50 value) SSTR5
T1 construct: expressed in transfected cells; host or cells: CHO (dhfr-) cells, strain SSTR5-3-2-4 (also printed SSTR5-32-4)
T1 sequence (P35346 whole entry): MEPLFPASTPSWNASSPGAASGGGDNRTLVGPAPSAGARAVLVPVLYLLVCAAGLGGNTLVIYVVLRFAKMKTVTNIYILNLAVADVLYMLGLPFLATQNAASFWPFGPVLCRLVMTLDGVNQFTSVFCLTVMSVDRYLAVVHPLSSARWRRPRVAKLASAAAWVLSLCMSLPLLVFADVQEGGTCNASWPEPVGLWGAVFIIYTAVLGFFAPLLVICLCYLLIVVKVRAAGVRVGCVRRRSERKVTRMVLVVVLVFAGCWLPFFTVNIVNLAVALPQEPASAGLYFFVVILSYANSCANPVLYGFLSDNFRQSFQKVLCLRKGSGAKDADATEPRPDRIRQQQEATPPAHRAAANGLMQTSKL
Protocol: (§1) A human somatostatin receptor expression CHO cell strain, SSTR1-8-3, SSTR2-HS5-9, SSTR3-15-19, SSTR4-1-2 or SSTR5-32-4 (10^9), was suspended in a phosphate buffered saline containing 5mM of EDTA (PBS-EDTA). The suspension was centrifuged. To the cell pellet was added 10 ml of a homogenation buffer solution for cells (10 mM NaHCO3, 5 mM EDTA, pH=7.5). The mixture was homogenized by a Politron homogenizer and centrifuged at 400×g for 15 minutes. The supernatant obtained was farther centrifuged at 100,000×g for an hour to obtain a precipitate of the membrane fraction. The precipitate was suspended in 2 ml of a buffer solution for assay ([…], 0.1% of BSA (bovine serum albumin) and […], 1 μ/ml of pepstatin, 20 μg/ml of leupeptin, 10 μg/ml of phosphoramide, pH=7.5). The suspension was centrifuged at […] for an hour. The membrane fraction recovered as precipitate was suspended again in 20 ml of buffer solution for assay. The suspension was placed in tubes and stored at −80° C. The suspension was thawed when used, and used at every use.
(§2) The membrane fraction prepared in Example 1 was diluted with a buffer solution for assay to adjust the concentration to 3 μg/ml. The diluate was placed in tubes each in quantity of 173 μl. To this were simultaneously added 2 μl of a solution of a compound in DMSO and 25μl of a 200pM radioisotope-labeled somatostatin (^125I-somatostatin: Amersham) solution. For measurement of the maximum binding, a reaction mixture added with 2 μl of DMSO and 25μl of a 200pM ^125I-somatostatin solution was prepared. For measurement of non-specific binding, a reaction mixture added with 2 μl of a 100 μM somatostatin solution diluted in DMSO and 25 μl of a 200pM ^125I-somatostatin solution was prepared at the same time. The mixtures were allowed to react at 25° C. for 60 minutes. Then, the reaction mixture was filtered by aspiration using a GF/B glass fiber filter paper (Whatman) treated with polyethylenimine. After filtration, the radioactivity of 125I-somatostatin remaining on the filter paper was measured by a γ-counter.
(§3) The binding rate (%) of each compound was calculated by the formula: […]
(§4) (where PBM: Percent maximum Binding, B: radioactivity when a compound was added, Bo: maximum binding radioactivity, NSB: non-specific binding radioactivity). The binding rates were calculated by changing the concentrations of the compound to obtain the 50% inhibiting concentration of the compound (IC50 value) by the Hil l plots.
(§5) The activities (IC50 value, μM) of the compounds for each human somatostatin receptor obtained by the above method are shown in the following Table 5.

[2] = target: T2, human somatostatin receptor SSTR2 (Homo sapiens, UniProt P30874); details: 125I-somatostatin binding, 25° C. for 60 minutes, read-out: Activities for human somatostatin receptor (IC50 value) SSTR2
T2 construct: expressed in transfected cells; host or cells: CHO (dhfr-) cells, strain SSTR2-HS5-9
T2 sequence (P30874 whole entry): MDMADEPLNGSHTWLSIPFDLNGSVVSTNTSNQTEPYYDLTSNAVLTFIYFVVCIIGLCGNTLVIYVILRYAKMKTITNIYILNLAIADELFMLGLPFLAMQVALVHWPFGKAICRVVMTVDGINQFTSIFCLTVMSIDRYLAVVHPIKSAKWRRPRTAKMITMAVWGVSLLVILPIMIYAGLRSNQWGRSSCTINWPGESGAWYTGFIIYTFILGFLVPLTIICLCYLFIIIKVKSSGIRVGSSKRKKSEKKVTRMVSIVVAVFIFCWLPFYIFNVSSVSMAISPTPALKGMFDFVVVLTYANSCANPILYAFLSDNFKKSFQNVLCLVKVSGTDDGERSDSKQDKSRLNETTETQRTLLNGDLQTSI
Protocol: as §1, §2, §3, §4, §5

[3] = target: T3, human somatostatin receptor SSTR3 (Homo sapiens, UniProt P32745); details: 125I-somatostatin binding, 25° C. for 60 minutes, read-out: Activities for human somatostatin receptor (IC50 value) SSTR3
T3 construct: expressed in transfected cells; host or cells: CHO (dhfr-) cells, strain SSTR3-15-19
T3 sequence (P32745 whole entry): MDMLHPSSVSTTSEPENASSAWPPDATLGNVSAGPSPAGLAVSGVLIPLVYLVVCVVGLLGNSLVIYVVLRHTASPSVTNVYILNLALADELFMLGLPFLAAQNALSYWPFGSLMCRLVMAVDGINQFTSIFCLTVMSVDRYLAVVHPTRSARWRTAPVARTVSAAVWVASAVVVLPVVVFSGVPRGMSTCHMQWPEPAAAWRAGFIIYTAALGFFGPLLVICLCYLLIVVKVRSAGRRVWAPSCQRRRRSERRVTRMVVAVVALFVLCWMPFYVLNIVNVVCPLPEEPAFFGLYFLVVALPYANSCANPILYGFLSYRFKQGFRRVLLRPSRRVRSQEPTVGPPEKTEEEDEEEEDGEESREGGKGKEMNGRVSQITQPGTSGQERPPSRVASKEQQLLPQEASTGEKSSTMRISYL
Protocol: as §1, §2, §3, §4, §5

[4] = target: T4, human somatostatin receptor SSTR1 (Homo sapiens, UniProt P30872); details: 125I-somatostatin binding, 25° C. for 60 minutes, read-out: Activities for human somatostatin receptor (IC50 value) SSTR1
T4 construct: expressed in transfected cells; host or cells: CHO (dhfr-) cells, strain SSTR1-8-3
T4 sequence (P30872 whole entry): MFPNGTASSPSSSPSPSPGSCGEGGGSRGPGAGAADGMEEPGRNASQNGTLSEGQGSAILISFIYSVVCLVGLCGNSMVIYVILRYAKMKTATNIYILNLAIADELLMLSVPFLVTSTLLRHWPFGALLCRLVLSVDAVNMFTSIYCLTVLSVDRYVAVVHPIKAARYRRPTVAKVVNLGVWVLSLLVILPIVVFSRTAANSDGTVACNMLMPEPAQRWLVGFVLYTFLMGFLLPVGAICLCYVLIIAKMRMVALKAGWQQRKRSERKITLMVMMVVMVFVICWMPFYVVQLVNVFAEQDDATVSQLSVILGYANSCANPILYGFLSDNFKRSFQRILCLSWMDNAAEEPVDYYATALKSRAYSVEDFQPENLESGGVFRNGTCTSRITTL
Protocol: as §1, §2, §3, §4, §5

[5] = target: T5, human somatostatin receptor SSTR4 (Homo sapiens, UniProt P31391); details: 125I-somatostatin binding, 25° C. for 60 minutes, read-out: Activities for human somatostatin receptor (IC50 value) SSTR4
T5 construct: expressed in transfected cells; host or cells: CHO (dhfr-) cells, strain SSTR4-1-2
T5 sequence (P31391 whole entry): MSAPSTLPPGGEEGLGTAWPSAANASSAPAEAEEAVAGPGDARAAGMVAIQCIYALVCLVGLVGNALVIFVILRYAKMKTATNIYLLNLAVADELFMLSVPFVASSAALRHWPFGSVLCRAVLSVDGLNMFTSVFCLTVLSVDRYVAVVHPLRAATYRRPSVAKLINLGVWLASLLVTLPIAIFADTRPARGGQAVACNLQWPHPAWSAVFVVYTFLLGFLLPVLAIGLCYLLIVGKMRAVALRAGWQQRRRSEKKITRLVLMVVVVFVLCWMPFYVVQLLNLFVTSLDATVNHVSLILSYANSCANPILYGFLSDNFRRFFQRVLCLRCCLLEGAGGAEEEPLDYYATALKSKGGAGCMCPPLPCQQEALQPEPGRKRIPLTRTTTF
Protocol: as §1, §2, §3, §4, §5

| SMILES | IC50 [1] [nM] | IC50 [2] [nM] | IC50 [3] [nM] | IC50 [4] [nM] | IC50 [5] [nM] |
| --- | --- | --- | --- | --- | --- |
| COc1ccc(CN2C(=O)C(CC(=O)NCc3ccccc3F)OC(c3ccc(CN)s3)c3cc(Cl)ccc32)cc1 (stereo not drawn) [Example 91, 3,5-Trans-N-(2-fluorobenzyl)-5-(2-aminomethylthiophen-5-yl)-7-chloro-1-(4-methoxybenzyl)-2-oxo-1,2,3,5-tetrahydro-4,1-benzoxazepine-3-acetamide•monohydrochloride] | 7 | > 1000 | 40 | > 1000 | 1000 |
| NCc1ccc(C2OC(CC(=O)NCc3ccccc3F)C(=O)N(Cc3ccc(-c4ccccc4)cc3)c3ccc(Cl)cc32)cc1 (stereo not drawn) [Example 87, 3,5-Trans-N-(2-fluorobenzyl)-5-(4-aminomethylphenyl)-1-(4-biphenylmethyl)-7-chloro-2-oxo-1,2,3,5-tetrahydro-4,1-benzoxazepine-3-acetamide•monohydrochloride] | 1 | 800 | 20 | 800 | 300 |
| CC(C)(N)c1cccc(C2OC(CC(=O)NCc3ccccc3F)C(=O)N(Cc3ccc(-c4ccccc4)cc3)c3ccc(Cl)cc32)c1 (stereo not drawn) [Example 93, 3,5-Trans-N-(2-fluorobenzyl)-5-[3-[(1-amino-1-methyl)ethyl]phenyl]-1-(4-biphenylmethyl)-7-chloro-2-oxo-1,2,3,5-tetrahydro-4,1-benzoxazepine-3-acetamide•monohydrochloride] | 9 | 500 | 4 | 900 | 200 |
| CC(C)(C)CN1C(=O)[C@H](CC(=O)NCc2ccccc2F)O[C@@H](c2cccc(CN)c2)c2cc(Cl)ccc21 [Example 25, (3S,5S)-N-(2-fluorobenzyl)-5-(3-aminomethylphenyl)-7-chloro-1-neopentyl-2-oxo-1,2,3,5-tetrahydro-4,1-benzoxazepine-3-acetamide•monohydrochloride] | 7 | 6000 | 300 | 8000 | 4000 |
| CC(C)(C)CN1C(=O)[C@@H](CC(=O)NCc2ccccc2F)O[C@H](c2cccc(CN)c2)c2cc(Cl)ccc21 [Example 26, (3R,5R)-N-(2-fluorobenzyl)-5-(3-aminomethylphenyl)-7-chloro-1-neopentyl-2-oxo-1,2,3,5-tetrahydro-4,1-benzoxazepine-3-acetamide•monohydrochloride] | 600 | > 10000 | 7000 | 10000 | 4000 |
